Data reported in ChEMBL document CHEMBL5291721, “A preclinical secondary pharmacology resource illuminates target-adverse drug reaction associations of marketed drugs” (Nat Commun, 2023).

How the values were obtained:
[1] = target: Gamma-aminobutyric acid receptor subunit alpha-1/alpha-2/beta-2/gamma-2 (Homo sapiens, UniProt P14867+P18507+P47869+P47870); type: functional, cell-based
[2] = target: T1, Muscarinic acetylcholine receptor M2 (Homo sapiens, UniProt P08172)
T1 sequence (P08172 whole entry): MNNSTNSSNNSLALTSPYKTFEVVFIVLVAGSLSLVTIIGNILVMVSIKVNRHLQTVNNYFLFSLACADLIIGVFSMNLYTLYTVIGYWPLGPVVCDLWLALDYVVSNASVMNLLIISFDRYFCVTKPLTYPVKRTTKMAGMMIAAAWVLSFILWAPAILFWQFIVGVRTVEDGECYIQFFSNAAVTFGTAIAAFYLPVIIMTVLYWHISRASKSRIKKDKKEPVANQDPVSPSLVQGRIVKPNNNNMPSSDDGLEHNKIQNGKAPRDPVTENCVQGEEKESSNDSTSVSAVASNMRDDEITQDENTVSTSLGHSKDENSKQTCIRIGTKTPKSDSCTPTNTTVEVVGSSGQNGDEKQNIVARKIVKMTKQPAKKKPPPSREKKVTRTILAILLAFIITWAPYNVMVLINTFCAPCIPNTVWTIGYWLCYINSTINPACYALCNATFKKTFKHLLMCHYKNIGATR

[3] = target: Beta-1 adrenergic receptor (Homo sapiens, UniProt P08588); type: functional, cell-based
Beta-1 adrenergic receptor, sequence (P08588 whole entry): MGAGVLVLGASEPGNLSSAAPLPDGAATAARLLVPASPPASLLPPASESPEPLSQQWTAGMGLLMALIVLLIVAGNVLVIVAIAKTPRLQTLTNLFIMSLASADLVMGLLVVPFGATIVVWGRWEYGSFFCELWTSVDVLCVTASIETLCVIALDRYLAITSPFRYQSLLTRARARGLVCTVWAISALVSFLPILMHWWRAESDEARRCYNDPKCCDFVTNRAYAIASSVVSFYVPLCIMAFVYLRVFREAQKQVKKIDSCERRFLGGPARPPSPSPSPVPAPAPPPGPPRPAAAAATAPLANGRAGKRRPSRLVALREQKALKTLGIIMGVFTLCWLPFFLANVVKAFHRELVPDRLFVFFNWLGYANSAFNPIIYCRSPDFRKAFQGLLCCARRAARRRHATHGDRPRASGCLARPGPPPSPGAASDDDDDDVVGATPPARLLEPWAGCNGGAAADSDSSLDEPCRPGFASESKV

Androgen receptor [4] = target: T2, Androgen receptor (Rattus norvegicus, UniProt P15207)
T2 sequence (P15207 whole entry): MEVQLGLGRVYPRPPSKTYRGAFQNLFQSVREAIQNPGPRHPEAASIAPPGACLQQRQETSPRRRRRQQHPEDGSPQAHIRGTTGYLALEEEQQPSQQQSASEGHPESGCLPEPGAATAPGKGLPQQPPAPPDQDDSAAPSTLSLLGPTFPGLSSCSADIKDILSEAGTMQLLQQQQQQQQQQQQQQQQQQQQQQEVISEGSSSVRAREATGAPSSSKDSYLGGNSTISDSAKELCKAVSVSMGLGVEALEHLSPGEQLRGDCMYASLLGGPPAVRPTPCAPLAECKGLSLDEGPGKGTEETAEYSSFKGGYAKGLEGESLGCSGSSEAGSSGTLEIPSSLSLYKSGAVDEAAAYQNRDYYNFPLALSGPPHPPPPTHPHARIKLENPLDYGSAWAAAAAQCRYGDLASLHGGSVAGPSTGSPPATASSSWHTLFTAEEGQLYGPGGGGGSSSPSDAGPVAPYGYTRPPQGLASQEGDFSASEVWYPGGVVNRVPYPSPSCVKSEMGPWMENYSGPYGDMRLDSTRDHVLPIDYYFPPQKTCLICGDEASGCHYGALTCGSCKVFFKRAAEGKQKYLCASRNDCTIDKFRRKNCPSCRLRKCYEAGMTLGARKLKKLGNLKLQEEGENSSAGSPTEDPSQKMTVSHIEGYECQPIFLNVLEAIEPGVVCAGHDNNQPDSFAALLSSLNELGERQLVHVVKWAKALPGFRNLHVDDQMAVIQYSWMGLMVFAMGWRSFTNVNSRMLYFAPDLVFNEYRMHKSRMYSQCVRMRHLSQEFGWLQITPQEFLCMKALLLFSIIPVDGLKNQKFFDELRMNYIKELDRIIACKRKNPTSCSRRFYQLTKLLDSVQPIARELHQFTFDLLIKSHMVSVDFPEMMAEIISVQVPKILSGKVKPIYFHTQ

Progesterone receptor = target: T3, Progesterone receptor (Homo sapiens, UniProt P06401)
T3 sequence (P06401 whole entry): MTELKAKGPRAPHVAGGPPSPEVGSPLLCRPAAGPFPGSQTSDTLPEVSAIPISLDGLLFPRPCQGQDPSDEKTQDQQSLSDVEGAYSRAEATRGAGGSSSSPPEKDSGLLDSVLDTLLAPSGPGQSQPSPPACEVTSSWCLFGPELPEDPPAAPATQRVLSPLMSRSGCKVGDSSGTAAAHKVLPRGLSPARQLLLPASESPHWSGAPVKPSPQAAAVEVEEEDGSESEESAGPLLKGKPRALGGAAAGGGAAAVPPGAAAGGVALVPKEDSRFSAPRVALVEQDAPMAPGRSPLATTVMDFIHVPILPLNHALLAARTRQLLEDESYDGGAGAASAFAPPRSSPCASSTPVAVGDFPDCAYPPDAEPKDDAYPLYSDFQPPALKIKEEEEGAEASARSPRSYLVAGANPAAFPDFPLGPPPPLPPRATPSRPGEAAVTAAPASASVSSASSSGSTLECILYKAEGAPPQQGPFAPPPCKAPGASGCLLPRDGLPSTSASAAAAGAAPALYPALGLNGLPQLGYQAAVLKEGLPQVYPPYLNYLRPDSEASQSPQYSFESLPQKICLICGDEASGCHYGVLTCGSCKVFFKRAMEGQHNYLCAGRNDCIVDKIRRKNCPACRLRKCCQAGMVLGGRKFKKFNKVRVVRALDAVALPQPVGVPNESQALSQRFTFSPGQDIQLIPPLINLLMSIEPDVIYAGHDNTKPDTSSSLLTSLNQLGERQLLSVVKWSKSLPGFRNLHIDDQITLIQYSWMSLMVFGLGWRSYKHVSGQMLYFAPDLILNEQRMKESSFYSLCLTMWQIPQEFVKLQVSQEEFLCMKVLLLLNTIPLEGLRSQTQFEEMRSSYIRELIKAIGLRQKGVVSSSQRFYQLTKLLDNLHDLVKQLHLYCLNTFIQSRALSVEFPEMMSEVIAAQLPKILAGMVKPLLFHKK

[5] = target: T4, 5-hydroxytryptamine receptor 1A (Homo sapiens, UniProt P08908)
T4 sequence (P08908 whole entry): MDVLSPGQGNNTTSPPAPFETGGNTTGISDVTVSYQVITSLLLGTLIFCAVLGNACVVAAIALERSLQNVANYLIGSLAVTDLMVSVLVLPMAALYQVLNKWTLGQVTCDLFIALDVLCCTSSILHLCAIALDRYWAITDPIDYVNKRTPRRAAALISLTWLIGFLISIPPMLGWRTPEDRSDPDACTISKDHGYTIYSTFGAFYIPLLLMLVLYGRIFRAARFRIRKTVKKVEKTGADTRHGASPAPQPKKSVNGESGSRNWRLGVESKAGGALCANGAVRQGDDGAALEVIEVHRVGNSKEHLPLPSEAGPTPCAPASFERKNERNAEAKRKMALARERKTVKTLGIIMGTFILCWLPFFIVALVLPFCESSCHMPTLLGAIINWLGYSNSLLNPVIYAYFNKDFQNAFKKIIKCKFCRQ

D(1A) dopamine receptor = D(1A) dopamine receptor (Homo sapiens, UniProt P21728)
D(1A) dopamine receptor, sequence (P21728 whole entry): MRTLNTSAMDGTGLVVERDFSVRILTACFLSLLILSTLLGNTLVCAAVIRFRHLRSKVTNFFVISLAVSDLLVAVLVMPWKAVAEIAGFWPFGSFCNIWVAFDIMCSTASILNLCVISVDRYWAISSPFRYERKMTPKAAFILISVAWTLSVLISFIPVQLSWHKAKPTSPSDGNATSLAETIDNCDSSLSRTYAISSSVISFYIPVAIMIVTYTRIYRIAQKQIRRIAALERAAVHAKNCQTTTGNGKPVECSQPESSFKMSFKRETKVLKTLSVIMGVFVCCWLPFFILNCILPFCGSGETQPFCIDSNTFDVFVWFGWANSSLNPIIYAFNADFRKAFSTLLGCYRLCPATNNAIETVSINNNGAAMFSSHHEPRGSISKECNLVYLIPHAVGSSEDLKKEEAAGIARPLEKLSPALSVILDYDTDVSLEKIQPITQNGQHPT

Androgen receptor [6] = target: T2, Androgen receptor; type: functional
Androgen receptor [7] = target: T2, Androgen receptor; type: functional; remark: listed apart in the source
Further: assay procedure not described here.

Gamma-aminobutyric acid receptor subunit alpha-1/alpha-2/beta-2/gamma-2, sequence (P14867 whole entry): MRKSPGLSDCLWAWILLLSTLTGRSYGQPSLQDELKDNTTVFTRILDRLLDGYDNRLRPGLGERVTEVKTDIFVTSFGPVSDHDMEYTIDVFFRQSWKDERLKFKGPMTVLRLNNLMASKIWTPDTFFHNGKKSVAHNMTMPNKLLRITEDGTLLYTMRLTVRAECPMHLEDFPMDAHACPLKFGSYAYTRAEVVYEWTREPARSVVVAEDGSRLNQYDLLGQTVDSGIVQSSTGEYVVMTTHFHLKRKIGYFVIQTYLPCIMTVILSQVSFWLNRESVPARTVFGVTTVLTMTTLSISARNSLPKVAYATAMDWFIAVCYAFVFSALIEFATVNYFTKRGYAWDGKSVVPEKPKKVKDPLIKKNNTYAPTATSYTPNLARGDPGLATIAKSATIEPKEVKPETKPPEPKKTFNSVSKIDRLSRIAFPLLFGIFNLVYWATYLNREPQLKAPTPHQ
Gamma-aminobutyric acid receptor subunit alpha-1/alpha-2/beta-2/gamma-2, sequence (P47870 whole entry): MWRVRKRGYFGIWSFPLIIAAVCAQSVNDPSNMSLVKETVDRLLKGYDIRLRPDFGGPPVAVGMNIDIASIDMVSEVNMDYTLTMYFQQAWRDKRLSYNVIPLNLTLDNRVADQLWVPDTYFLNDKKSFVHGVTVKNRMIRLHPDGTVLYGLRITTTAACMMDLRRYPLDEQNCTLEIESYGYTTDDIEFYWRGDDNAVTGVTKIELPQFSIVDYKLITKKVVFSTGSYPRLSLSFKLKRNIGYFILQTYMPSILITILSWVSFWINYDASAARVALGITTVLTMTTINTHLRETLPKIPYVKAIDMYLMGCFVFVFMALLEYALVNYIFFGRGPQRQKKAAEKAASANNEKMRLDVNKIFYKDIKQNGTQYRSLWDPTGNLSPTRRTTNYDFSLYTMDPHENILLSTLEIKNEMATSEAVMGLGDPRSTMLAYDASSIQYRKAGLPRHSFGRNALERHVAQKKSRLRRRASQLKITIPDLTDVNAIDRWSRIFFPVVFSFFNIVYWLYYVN
Gamma-aminobutyric acid receptor subunit alpha-1/alpha-2/beta-2/gamma-2, sequence (P18507 whole entry): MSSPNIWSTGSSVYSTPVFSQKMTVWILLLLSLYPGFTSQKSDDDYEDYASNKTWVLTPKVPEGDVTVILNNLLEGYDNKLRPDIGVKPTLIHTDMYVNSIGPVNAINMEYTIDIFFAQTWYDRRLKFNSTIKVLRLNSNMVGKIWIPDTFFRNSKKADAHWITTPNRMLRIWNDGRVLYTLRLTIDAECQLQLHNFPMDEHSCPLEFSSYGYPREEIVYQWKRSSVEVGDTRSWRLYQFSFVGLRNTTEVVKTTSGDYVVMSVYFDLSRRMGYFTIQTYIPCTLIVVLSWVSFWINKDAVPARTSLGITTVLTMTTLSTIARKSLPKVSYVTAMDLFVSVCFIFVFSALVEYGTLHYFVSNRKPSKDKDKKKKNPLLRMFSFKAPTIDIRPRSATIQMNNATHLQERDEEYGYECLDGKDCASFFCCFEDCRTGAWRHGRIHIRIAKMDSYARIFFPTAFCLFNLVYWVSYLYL
Gamma-aminobutyric acid receptor subunit alpha-1/alpha-2/beta-2/gamma-2, sequence (P47869 whole entry): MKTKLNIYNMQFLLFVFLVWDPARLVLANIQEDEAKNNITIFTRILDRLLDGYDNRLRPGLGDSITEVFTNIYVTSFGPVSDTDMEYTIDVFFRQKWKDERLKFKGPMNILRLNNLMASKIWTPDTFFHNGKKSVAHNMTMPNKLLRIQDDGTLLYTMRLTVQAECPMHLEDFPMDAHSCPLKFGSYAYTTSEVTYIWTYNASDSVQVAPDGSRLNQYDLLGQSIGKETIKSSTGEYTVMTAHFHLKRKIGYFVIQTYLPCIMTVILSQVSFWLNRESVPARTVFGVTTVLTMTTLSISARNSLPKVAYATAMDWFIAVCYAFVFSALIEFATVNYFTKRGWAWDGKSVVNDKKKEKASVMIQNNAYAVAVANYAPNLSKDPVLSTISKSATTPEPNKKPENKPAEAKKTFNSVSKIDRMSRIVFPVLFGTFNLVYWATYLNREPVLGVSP

## NC(=O)CN1CCCC1=O
[1]
  AC50: > 30 µM

## C[N@+]1(CCF)[C@@H]2CC[C@H]1C[C@@H](OC(=O)C(O)(c1ccccc1)c1ccccc1)C2
[2]
  AC50: 0.2 µM

## CC(=O)O[C@H](CC(=O)[O-])C[N+](C)(C)C [ACETYLCARNITINE]
[3]
  AC50: > 30 µM

## Cn1c(=O)cc(N2CCC[C@@H](N)C2)n(Cc2ccccc2C#N)c1=O [ALOGLIPTIN]
Androgen receptor [4]
  AC50: > 30 µM
Progesterone receptor
  AC50: > 30 µM
[5]
  AC50: > 10 µM
[2]
  AC50: > 10 µM
D(1A) dopamine receptor
  AC50: > 10 µM

## CCN1CCCC1CNC(=O)c1cc(S(=O)(=O)CC)c(N)cc1OC (centres undefined) [AMISULPRIDE]
[1]
  AC50: > 30 µM

## O=C(O)CCNC(=O)c1ccccc1 [BETAMIPRON]
[3]
  AC50: > 30 µM

## O=C1CN=C(c2ccccn2)c2cc(Br)ccc2N1 [BROMAZEPAM]
Androgen receptor [4]
  AC50: > 10 µM

## Oc1ccc2c(c1)[C@@]13CCCC[C@@]1(O)[C@@H](C2)N(CC1CCC1)CC3 [BUTORPHANOL]
Androgen receptor [6]
  AC50: > 30 µM
Androgen receptor [7]
  AC50: > 30 µM
[1]
  AC50: > 30 µM

## C=C1/C(=C\C=C2/CCC[C@]3(C)[C@@H]([C@H](C)/C=C/[C@@H](O)C4CC4)CC[C@@H]23)C[C@@H](O)C[C@@H]1O [CALCIPOTRIENE]
Androgen receptor [6]
  AC50: > 30 µM
Androgen receptor [7]
  AC50: 28 µM
[5]
  AC50: > 30 µM

## CCN(CC)C(=O)Nc1ccc(OCC(O)CNC(C)(C)C)c(C(C)=O)c1 (centres undefined) [CELIPROLOL]
[3]
  AC50: > 30 µM
Androgen receptor [6]
  AC50: > 30 µM
Androgen receptor [7]
  AC50: > 30 µM

## CC(=O)[C@@]1(O)CC[C@H]2[C@@H]3C=C(Cl)C4=CC(=O)[C@@H]5C[C@@H]5[C@]4(C)[C@H]3CC[C@@]21C [CYPROTERONE]
D(1A) dopamine receptor
  AC50: > 10 µM

## CC(=O)OCC(=O)[C@@]1(O)[C@H](C)C[C@H]2[C@@H]3CCC4=CC(=O)C=C[C@]4(C)[C@@]3(F)[C@@H](O)C[C@@]21C [DEXAMETHASONE ACETATE]
Progesterone receptor
  AC50: > 30 µM
[5]
  AC50: > 10 µM
[2]
  AC50: > 10 µM

## CCCCCCCCCCCCCCCCCCCCCC(=O)Nc1ccn([C@@H]2O[C@H](CO)[C@@H](O)[C@@H]2O)c(=O)n1 [ENOCITABINE]
Androgen receptor [6]
  AC50: > 30 µM
Androgen receptor [7]
  AC50: > 30 µM

## CCN(CC)CCN1C(=O)CN=C(c2ccccc2F)c2cc(Cl)ccc21 [FLURAZEPAM]
[5]
  AC50: 5.47 µM

## CC(=O)[C@]1(O)Cc2c(O)c3c(c(O)c2[C@@H](O[C@H]2C[C@H](N)[C@H](O)[C@H](C)O2)C1)C(=O)c1ccccc1C3=O [IDARUBICIN]
Androgen receptor [6]
  AC50: 17 µM

## Nc1cc(-c2ccncc2)c[nH]c1=O [INAMRINONE]
Androgen receptor [4]
  AC50: > 30 µM
Progesterone receptor
  AC50: > 20 µM

## O=C(O)c1ccccc1Nc1cc(Cl)ccc1C(=O)O [LOBENZARIT]
[3]
  AC50: > 30 µM

## COc1cc2c(cc1OC)C(CCc1ccc(Cl)cc1)N(C)CC2 (centres undefined) [METHOPHOLINE]
Androgen receptor [4]
  AC50: > 30 µM

## Cc1ncc2n1-c1ccc(Cl)cc1C(c1ccccc1F)=NC2 [MIDAZOLAM]
Progesterone receptor
  AC50: > 30 µM
[5]
  AC50: > 10 µM

## COc1ccc(-c2noc(CC(=O)O)c2-c2ccc(OC)cc2)cc1 [MOFEZOLAC]
[3]
  AC50: > 30 µM
Androgen receptor [6]
  AC50: > 30 µM
Androgen receptor [7]
  AC50: > 30 µM

## C#CCOc1ccc(N)cc1C(=O)NCCCC [PARSALMIDE]
Androgen receptor [6]
  AC50: > 30 µM
Androgen receptor [7]
  AC50: > 30 µM

## COc1ccc2nc3cc(Cl)ccc3c(Nc3cc(CN4CCCC4)c(O)c(CN4CCCC4)c3)c2n1 [PYRONARIDINE]
Androgen receptor [6]
  AC50: > 30 µM
Androgen receptor [7]
  AC50: > 10 µM

## OCc1cc(C(O)CNCCCCCCOCCCCc2ccccc2)ccc1O (centres undefined) [SALMETEROL]
D(1A) dopamine receptor
  AC50: > 10 µM

## Cn1cnc2c(F)c(Nc3ccc(Br)cc3Cl)c(C(=O)NOCCO)cc21 [SELUMETINIB]
Progesterone receptor
  AC50: > 30 µM
[5]
  AC50: > 10 µM
[2]
  AC50: > 10 µM
D(1A) dopamine receptor
  AC50: > 10 µM

## NC1CCN(c2nc3c(cc2F)c(=O)c(C(=O)O)cn3-c2ccc(F)cc2F)C1 (centres undefined) [TOSUFLOXACIN]
Androgen receptor [6]
  AC50: > 30 µM
Androgen receptor [7]
  AC50: > 30 µM

## CCC(COC(=O)c1cc(OC)c(OC)c(OC)c1)(c1ccccc1)N(C)C (centres undefined) [TRIMEBUTINE]
[3]
  AC50: > 30 µM
